From ChEMBL document CHEMBL2311338, “On the preparation of indoxyl red from indican and some new characteristics” (Bioorg Med Chem Lett, 2013)
Calls of active or inactive are those of the source. The calls are words filed in the database; no cut-off is given here.

Assays:
[1] = Antiproliferative activity against human leukemia cells; type: functional, cell-based; conditions: Leukemia cell
SNU-638 = assay: Antiproliferative activity against human SNU638 cells; type: functional, cell-based
[2] = Antiproliferative activity against human lung cancer cells; type: functional, cell-based; conditions: Cancer cell lines
MCF7 = assay: Antiproliferative activity against human MCF7 cells; type: functional, cell-based
[3] = Anticancer activity against 1 x 10^5 cells mouse NSF202 cells assessed as decrease in viable cells at 1 ug/ml measured after 2 days by trypan blue exclusion method; type: functional
Mus musculus [4] = species on record: Mus musculus; assay: Anticancer activity against 1 x 10^5 cells mouse NSF202 cells assessed as cell growth inhibition at 1.02 uM measured after 2 days by trypan blue exclusion method; type: functional, cell-based
Mus musculus [5] = species on record: Mus musculus; assay: Anticancer activity against 2 x 10^5 cells mouse NSF202 cells assessed as cell growth inhibition at 1.02 uM measured after 2 days by trypan blue exclusion method; type: functional, cell-based

SMILES | IC50 [1] [µM] | IC50 (SNU-638) [µM] | IC50 [2] [µM] | IC50 (MCF7) [µM] | Activity [3] [%] | inhibition (Mus musculus [4]) | inhibition (Mus musculus [5])
O=Nc1c(-c2c(O)[nH]c3ccc([N+](=O)[O-])cc23)[nH]c2ccccc12 | 9.2 | 1.2 | 5.4 | 1.4 |  |  | 
O=C1C(c2c[nH]c3ccccc23)=Nc2ccccc21 [INDOXYL RED] |  |  |  |  | 40 | Active | Active
